From PubChem BioAssay (NCI)
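Compound exposure: 48 hours, 5 concentrations, 96-well plates. TGI is the concentration that stops growth completely.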

Key:
Assay in all cases: NCI anticancer screen, dose series, 48 h
ACHN renal = system: ACHN renal
NCI-H23 lung = system: NCI-H23 lung
MDA-N = system: MDA-N
SF-295 CNS = system: SF-295 CNS
K-562 leukemia = system: K-562 leukemia
MDA-MB-231 breast = system: MDA-MB-231 breast
EKVX NSCLC = system: EKVX NSCLC
NCI/ADR-RES ovarian = system: NCI/ADR-RES ovarian
PC-3 prostate = system: PC-3 prostate
T-47D breast = system: T-47D breast
SN12C renal = system: SN12C renal
SK-MEL-2 melanoma = system: SK-MEL-2 melanoma
NCI-H460 lung = system: NCI-H460 lung
TK-10 renal = system: TK-10 renal
HCC-2998 colon = system: HCC-2998 colon
LOX IMVI melanoma = system: LOX IMVI melanoma
SF-268 CNS = system: SF-268 CNS
786-0 renal = system: 786-0 renal
MALME-3M melanoma = system: MALME-3M melanoma
HOP-62 NSCLC = system: HOP-62 NSCLC
CAKI-1 renal = system: CAKI-1 renal
OVCAR-3 ovarian = system: OVCAR-3 ovarian
BT-549 breast = system: BT-549 breast
OVCAR-4 ovarian = system: OVCAR-4 ovarian
A549 NSCLC = system: A549 NSCLC
U251 CNS = system: U251 CNS
SW-620 colon = system: SW-620 colon
HCT-116 colon = system: HCT-116 colon
MOLT-4 leukemia = system: MOLT-4 leukemia
HCT-15 colon = system: HCT-15 colon
MCF7 breast = system: MCF7 breast
NCI-H522 lung = system: NCI-H522 lung
UACC-257 melanoma = system: UACC-257 melanoma
SK-MEL-28 melanoma = system: SK-MEL-28 melanoma
OVCAR-8 ovarian = system: OVCAR-8 ovarian
COLO 205 colon = system: COLO 205 colon
RPMI-8226 leukemia = system: RPMI-8226 leukemia
A498 renal = system: A498 renal
DU-145 prostate = system: DU-145 prostate
SNB-75 CNS = system: SNB-75 CNS
RXF 393 renal = system: RXF 393 renal
HT29 colon = system: HT29 colon
SNB-19 CNS = system: SNB-19 CNS
UO-31 renal = system: UO-31 renal
SF-539 CNS = system: SF-539 CNS
UACC-62 melanoma = system: UACC-62 melanoma
HL-60(TB) leukemia = system: HL-60(TB) leukemia
HOP-92 NSCLC = system: HOP-92 NSCLC
SK-OV-3 ovarian = system: SK-OV-3 ovarian
OVCAR-5 ovarian = system: OVCAR-5 ovarian
M14 melanoma = system: M14 melanoma
SR leukemia = system: SR leukemia
SK-MEL-5 melanoma = system: SK-MEL-5 melanoma
MDA-MB-435 = system: MDA-MB-435
KM12 colon = system: KM12 colon
HS 578T breast = system: HS 578T breast
IGROV1 ovarian = system: IGROV1 ovarian
CCRF-CEM leukemia = system: CCRF-CEM leukemia
NCI-H226 lung = system: NCI-H226 lung

Q: Which TGI (ACHN renal) does the source give for `COc1cc2oc3c(c(=O)c2c(O)c1/C=C/C(C)C)CCC(C)(C)Oc1cc(O)ccc1-3` here?
A: 27.1 µM

Q: And the TGI (NCI-H23 lung)?
A: 30.1 µM

Q: And the TGI (MDA-N)?
A: 25.6 µM

Q: And the TGI (SF-295 CNS)?
A: 27.7 µM

Q: And the TGI (K-562 leukemia)?
A: 13.6 µM

Q: What about the TGI (MDA-MB-231 breast) of the same molecule?
A: 32.4 µM

Q: And the TGI (EKVX NSCLC)?
A: 47.6 µM

Q: And the TGI (NCI/ADR-RES ovarian)?
A: 39.3 µM

Q: And the TGI (PC-3 prostate)?
A: 28.4 µM

Q: And the TGI (T-47D breast)?
A: > 100 µM

Q: What about the TGI (SN12C renal) of the same molecule?
A: 27.4 µM

Q: And the TGI (SK-MEL-2 melanoma)?
A: 30.2 µM

Q: What about the TGI (NCI-H460 lung) of the same molecule?
A: 21.3 µM

Q: What about the TGI (TK-10 renal) of the same molecule?
A: 28.7 µM

Q: And the TGI (HCC-2998 colon)?
A: 27.5 µM

Q: What about the TGI (LOX IMVI melanoma) of the same molecule?
A: > 100 µM

Q: And the TGI (SF-268 CNS)?
A: 32.2 µM

Q: What about the TGI (786-0 renal) of the same molecule?
A: 47.1 µM

Q: And the TGI (MALME-3M melanoma)?
A: 41.4 µM

Q: And the TGI (HOP-62 NSCLC)?
A: 28.9 µM

Q: And the TGI (CAKI-1 renal)?
A: 30.6 µM

Q: What about the TGI (OVCAR-3 ovarian) of the same molecule?
A: 29 µM

Q: What about the TGI (BT-549 breast) of the same molecule?
A: 31.6 µM

Q: And the TGI (OVCAR-4 ovarian)?
A: 28.6 µM

Q: What about the TGI (A549 NSCLC) of the same molecule?
A: 27.1 µM

Q: And the TGI (U251 CNS)?
A: 66.1 µM

Q: And the TGI (SW-620 colon)?
A: 51.8 µM

Q: And the TGI (HCT-116 colon)?
A: 65.9 µM

Q: What about the TGI (MOLT-4 leukemia) of the same molecule?
A: 35 µM

Q: And the TGI (HCT-15 colon)?
A: 21.8 µM

Q: And the TGI (MCF7 breast)?
A: 26.7 µM

Q: What about the TGI (NCI-H522 lung) of the same molecule?
A: 38.1 µM

Q: What about the TGI (UACC-257 melanoma) of the same molecule?
A: 29.2 µM

Q: What about the TGI (SK-MEL-28 melanoma) of the same molecule?
A: 40.2 µM

Q: What about the TGI (OVCAR-8 ovarian) of the same molecule?
A: 31.4 µM

Q: And the TGI (COLO 205 colon)?
A: 66.9 µM

Q: And the TGI (RPMI-8226 leukemia)?
A: 45.5 µM

Q: And the TGI (A498 renal)?
A: 42.6 µM

Q: What about the TGI (DU-145 prostate) of the same molecule?
A: 97.9 µM

Q: What about the TGI (SNB-75 CNS) of the same molecule?
A: 33.1 µM

Q: And the TGI (RXF 393 renal)?
A: 24.4 µM

Q: What about the TGI (HT29 colon) of the same molecule?
A: 19.2 µM

Q: And the TGI (SNB-19 CNS)?
A: 30.7 µM

Q: What about the TGI (UO-31 renal) of the same molecule?
A: 25.8 µM

Q: And the TGI (SF-539 CNS)?
A: 26.2 µM

Q: And the TGI (UACC-62 melanoma)?
A: 30.3 µM

Q: And the TGI (HL-60(TB) leukemia)?
A: 45.4 µM

Q: And the TGI (HOP-92 NSCLC)?
A: 34.3 µM

Q: And the TGI (SK-OV-3 ovarian)?
A: 34.8 µM

Q: And the TGI (OVCAR-5 ovarian)?
A: 30.7 µM

Q: What about the TGI (M14 melanoma) of the same molecule?
A: 23 µM

Q: And the TGI (SR leukemia)?
A: 20 µM

Q: And the TGI (SK-MEL-5 melanoma)?
A: 39.9 µM

Q: And the TGI (MDA-MB-435)?
A: 39.8 µM

Q: What about the TGI (KM12 colon) of the same molecule?
A: 21.8 µM

Q: What about the TGI (HS 578T breast) of the same molecule?
A: 31.2 µM

Q: What about the TGI (IGROV1 ovarian) of the same molecule?
A: 40.6 µM

Q: And the TGI (CCRF-CEM leukemia)?
A: 57.6 µM

Q: What does the source list for `O=C(c1ccccc1)C(C(=O)c1ccccc1)c1nc2ccccc2sc1=O`?
A: TGI (NCI-H226 lung): 23 µM; TGI (ACHN renal): > 25 µM; TGI (NCI-H23 lung): > 25 µM; TGI (MDA-N): > 25 µM; TGI (SF-295 CNS): > 25 µM; TGI (K-562 leukemia): > 25 µM; TGI (MDA-MB-231 breast): > 25 µM; TGI (EKVX NSCLC): > 25 µM; TGI (NCI/ADR-RES ovarian): > 25 µM; TGI (PC-3 prostate): > 25 µM; TGI (T-47D breast): > 25 µM; TGI (SN12C renal): > 25 µM; TGI (SK-MEL-2 melanoma): > 25 µM; TGI (NCI-H460 lung): > 25 µM; TGI (TK-10 renal): > 25 µM; TGI (HCC-2998 colon): > 25 µM; TGI (LOX IMVI melanoma): > 25 µM; TGI (SF-268 CNS): > 25 µM; TGI (786-0 renal): > 25 µM; TGI (MALME-3M melanoma): > 25 µM; TGI (HOP-62 NSCLC): > 25 µM; TGI (CAKI-1 renal): > 25 µM; TGI (OVCAR-3 ovarian): > 25 µM; TGI (BT-549 breast): > 25 µM; TGI (OVCAR-4 ovarian): > 25 µM; TGI (A549 NSCLC): > 25 µM; TGI (U251 CNS): > 25 µM; TGI (SW-620 colon): > 25 µM; TGI (HCT-116 colon): > 25 µM; TGI (MOLT-4 leukemia): > 25 µM; TGI (HCT-15 colon): > 25 µM; TGI (MCF7 breast): > 25 µM; TGI (NCI-H522 lung): > 25 µM; TGI (UACC-257 melanoma): > 25 µM; TGI (SK-MEL-28 melanoma): > 25 µM; TGI (OVCAR-8 ovarian): > 25 µM; TGI (COLO 205 colon): > 25 µM; TGI (RPMI-8226 leukemia): > 25 µM; TGI (A498 renal): > 25 µM; TGI (DU-145 prostate): > 25 µM; TGI (RXF 393 renal): > 25 µM; TGI (HT29 colon): > 25 µM; TGI (SNB-19 CNS): > 25 µM; TGI (UO-31 renal): > 25 µM; TGI (SF-539 CNS): > 25 µM; TGI (UACC-62 melanoma): 24 µM; TGI (HL-60(TB) leukemia): > 25 µM; TGI (HOP-92 NSCLC): 13 µM; TGI (SK-OV-3 ovarian): > 25 µM; TGI (OVCAR-5 ovarian): > 25 µM; TGI (M14 melanoma): > 25 µM; TGI (SR leukemia): […]; TGI (SK-MEL-5 melanoma): > 25 µM; TGI (MDA-MB-435): > 25 µM; TGI (KM12 colon): > 25 µM; TGI (HS 578T breast): > 25 µM; TGI (IGROV1 ovarian): > 25 µM; TGI (CCRF-CEM leukemia): > 25 µM
